According to patent EP2064211B1, “IMIDAZO[1,2-A]PYRIDINE HYDROXYMATE COMPOUNDS THAT ARE INHIBITORS OF HISTONE DEACETYLASE” (MEI Pharma, Inc., priority 2006, dated 2008):
Where two headings read alike, the source gives them in different places.

Legend:
Colo205 cells = assay: Cell-based proliferation assay for determination of GI50 values (CyQUANT); set-up: species or system Human; details: concentration for 50% inhibition of cell growth, read-out: Gl50 (Colo205)
Experimental: Human cancer cell lines (e.g. Colo205) were obtained from ATCC. Colo205 cells were cultivated in RPMI 1640 containing 2 mM L-Glutamine, 5% FBS, 1.0 mM Na Pyruvate. Colo205 cells were seeded in 96-wells plate at 5000 cells per well. The plates were incubated at 37°C, 5% CO2, for 24 h. Cells were treated with compounds at various concentrations for 96 h. Cell growth was then monitored using CyQUANT® cell proliferation assay (Invitrogen Pte Ltd). Dose response curves were plotted to determine Gl50 values for the compounds using XL-fit (ID Business Solution, Emeryville, CA). Gl50 is defined as the concentration of compound required for 50% inhibition of cell growth.

HDAC1 enzyme = molecular target: T1, HDAC1 enzyme (Homo sapiens, UniProt Q13547); assay: In vitro HDAC assay for determination of IC50 values (BIOMOL fluorescent-based HDAC activity assay); assay type: biochemical; details: recombinant GST-HDAC1, 500 uM Flur de lys substrate, room temperature 2 h; read-out: IC50 (HDAC 1)
T1 construct: Amplification of human HDAC1 coding region from this cDNA library was cloned separately into the baculovirus expression pDEST20 vector; made in house; host or cells: SF9 insect cells (baculovirus, pDEST20 vector)
T1 sequence (Q13547 whole entry): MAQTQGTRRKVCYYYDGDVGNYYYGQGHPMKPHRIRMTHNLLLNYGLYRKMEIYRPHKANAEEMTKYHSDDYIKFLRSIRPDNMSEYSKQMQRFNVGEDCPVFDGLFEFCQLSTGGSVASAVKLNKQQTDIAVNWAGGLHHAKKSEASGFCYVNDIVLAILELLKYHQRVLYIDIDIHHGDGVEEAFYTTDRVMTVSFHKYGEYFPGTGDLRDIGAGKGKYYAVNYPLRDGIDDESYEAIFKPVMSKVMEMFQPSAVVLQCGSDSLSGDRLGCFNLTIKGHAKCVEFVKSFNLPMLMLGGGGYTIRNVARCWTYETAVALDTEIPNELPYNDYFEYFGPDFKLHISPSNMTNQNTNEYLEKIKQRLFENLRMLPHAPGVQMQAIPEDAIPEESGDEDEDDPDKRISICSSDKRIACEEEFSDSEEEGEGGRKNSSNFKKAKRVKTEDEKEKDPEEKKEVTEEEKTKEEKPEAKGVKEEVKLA
Experimental: Human cDNA library was prepared using cultured SW620 cells. Amplification of human HDAC1 coding region from this cDNA library was cloned separately into the baculovirus expression pDEST20 vector (GATEWAY Cloning Technology, Invitrogen Pte Ltd). The pDEST20-HDAC1 construct was confirmed by DNA sequencing. Recombinant baculovirus was prepared using the Bac-To-Bac method following the manufacturer's instruction (Invitrogen Pte Ltd).
Expression of GST-HDAC1 was done by infecting SF9 cells (Invitrogen Pte Ltd) with pDEST20-HDAC1 baculovirus at MOI=1 for 48 h. Soluble cell lysate was incubated with pre-equilibrated Glutathione Sepharose 4B beads (Amersham) at 4°C for 2 h. The beads were washed with PBS buffer for 3 times. The GST-HDAC1 protein was eluted by elution buffer containing 50 mM Tris, pH8.0, 150mM NaCl, 1% Triton X-100 and 10mM or 20mM reduced Glutathione. The purified GST-HDAC1 protein was dialyzed with HDAC storage buffer containing 10mM Tris, pH7.5, 100mM NaCl and 3mM MgCl2. 20% Glycerol was added to purified GST-HDAC1 protein before storage at -80°C.
The assay has been carried out in 96 well format and the BIOMOL fluorescent-based HDAC activity assay has been applied. The reaction composed of assay buffer, containing 25 mM Tris pH 7.5, 137 mM NaCl, 2.7 mM KCl, 1 mM MgCl2, 1 mg/ml BSA, tested compounds, an appropriate concentration of HDAC1 enzyme, 500 uM Flur de lys generic substrate for HDAC1 enzyme and subsequently was incubated at room temperature for 2 h. Flur de lys Developer was added and the reaction was incubated for 10 min. Briefly, deacetylation of the substrate sensitizes it to the developer, which then generates a fluorophore. The fluorophore is excited with 360 nm light and the emitted light (460 nm) is detected on a fluorometric plate reader (Tecan Ultra Microplate detection system, Tecan Group Ltd.).
The analytical software, Prism 4.0 (GraphPad Software Inc) has been used to generate IC50 from a series of data. IC50 is defined as the concentration of compound required for 50% inhibition of HDAC enzyme activity.

[1] = Homo sapiens, COLO 205, compound treatment 96 h

Molecule	IC50 (Colo205 cells; compound treatment 96 h) [nM]	IC50 (HDAC1 enzyme) [nM]	IC50 (Colo205 cells; [1]) [nM]
3-(2-Butyl-3-{(ethyl-(2-methyl-pentyl)-amino]-methyl}-imidazo[1,2-a]pyridin-7-yl)-N-hydroxy-acrylamide [Compound 41]	370	–	–
CC(C)(C)CNCc1c(C(C)(C)C)nc2cc(C=CC(=O)NO)ccn12 [Compound 1, 3-{2-tert-Butyl-3-[(2,2-dimethyl-propylamino)-methyl]-imidazo[1,2-a]pyridin-7-yl}-N-hydroxy-acrylamide]	–	190	1500
CCC(CC)NCc1c(C(C)(C)C)nc2cc(C=CC(=O)NO)ccn12 [Compound 2, 3-{2-tert-Butyl-3-[(1-ethyl-propylamino)-methyl]-imidazo[1,2-a]pyridin-7-yl}-N-hydroxy-acrylamide]	–	160	1500
CC(C)(C)NCc1c(C(C)(C)C)nc2cc(C=CC(=O)NO)ccn12 [Compound 3, 3-[2-tert-Butyl-3-(tert-butylamino-methyl)-imidazo[1,2-a]pyridin-7-yl]-N-hydroxy-acrylamide]	–	130	740
CCCCNCc1c(CCCC)nc2cc(C=CC(=O)NO)ccn12 [Compound 4, 3-(2-Butyl-3-butylaminomethyl-imidazo[1,2-a]pyridin-7-yl)-N-hydroxy-acrylamide]	–	20	180
CCCCc1nc2cc(C=CC(=O)NO)ccn2c1CN(CCC)CCC [Compound 6, 3-(2-Butyl-3-dipropylaminomethyl-imidazo[1,2-a]pyridin-7-yl)-N-hydroxy-acrylamide]	–	200	610
CCCCc1nc2cc(C=CC(=O)NO)ccn2c1CN(CC)CC [Compound 7, 3-(2-Butyl-3-diethylaminomethyl-imidazo[1,2-a]pyridin-7-yl)-N-hydroxy-acrylamide]	–	180	680
CCCCc1nc2cc(C=CC(=O)NO)ccn2c1CN(C)CCCC [Compound 8, 3-{2-Butyl-3-[(butyl-methyl-amino)-methyl]-imidazo[1,2-a]pyridin-7-yl}-N-hydroxy-acrylamide]	–	70	170
CCCCc1nc2cc(C=CC(=O)NO)ccn2c1CN(CC)CCCC [Compound 9, 3-{2-Butyl-3-[(butyl-ethyl-amino)-methyl]-imidazo[1,2-a]pyridin-7-yl}-N-hydroxy-acrylamide]	–	60	160
CCCCc1nc2cc(C=CC(=O)NO)ccn2c1CN(CCC)CCCC [Compound 10, 3-{2-Butyl-3-[(butyl-propyl-amino)-methyl]-imidazo[1,2-a]pyridin-7-yl}-N-hydroxy-acrylamide]	–	90	580
CCN(CC)Cc1c(C(C)(C)C)nc2cc(C=CC(=O)NO)ccn12 [Compound 11, 3-(2-tert-Butyl-3-diethylaminomethyl-imidazo[1,2-a]pyridin-7-yl)-N-hydroxy-acrylamide]	–	1200	4400
CCCCN(CCCC)Cc1c(C)nc2cc(/C=C/C(=O)NO)ccn12 [Compound 12, 3-(3-Dibutylaminomethyl-2-methyl-imidazo[1,2-a]pyridin-7-yl)-N-hyroxy-acrylamide]	–	80	800
CCCN(CC)Cc1c(C(C)(C)C)nc2cc(C=CC(=O)NO)ccn12 [Compound 13, 3-{2-tert-Butyl-3-[(ethyl-propyl-amino)-methyl]-imidazo[1,2-a]pyridin-7-yl}-N-hydroxy-acrylamide]	–	270	1800
CCCCc1nc2cc(C=CC(=O)NO)ccn2c1CN(C)C [Compound 14, 3-(2-Butyl-3-dimethylaminomethyl-imidazo[1,2-a]pyridin-7-yl)-N-hydroxy-acrylamide]	–	40	230
CCNCc1c(C(C)(C)C)nc2cc(C=CC(=O)NO)ccn12 [Compound 15, 3-(2-tert-Butyl-3-ethylaminomethyl-imidazo[1,2-a]pyridin-7-yl)-N-hydroxy-acrylamide]	–	60	470
CCCCN(CC)Cc1c(C(C)(C)C)nc2cc(C=CC(=O)NO)ccn12 [Compound 16, 3-{2-tert-Butyl-3-[(butyl-ethyl-amino)-methyl]-imidazo[1,2-a]pyridin-7-yl}-N-hydroxy-acrylamide]	–	60	680
CCN(Cc1c(C(C)(C)C)nc2cc(C=CC(=O)NO)ccn12)CC(C)C [Compound 17, 3-{2-tert-Butyl-3-[(ethyl-isobutyl-amino)-methyl]-imidazo[1,2-a]pyridin-7-yl}-N-hydroxy-acrylamide]	–	570	3900
CCCCCN(CC)Cc1c(C(C)(C)C)nc2cc(C=CC(=O)NO)ccn12 [Compound 18, 3-{2-tert-Butyl-3-[(ethyl-pentyl-amino)-methyl]-imidazo[1,2-a]pyridin-7-yl}-N-hydroxy-acrylamide]	–	130	750
CCC(C)CN(CC)Cc1c(C(C)(C)C)nc2cc(C=CC(=O)NO)ccn12 (stereo not shown) [Compound 19, 3-(2-tert-Butyl-3-{[ethyl-(2-methyl-butyl)-amino]-methyl}-imidazo[1,2-a]pyridin-7-yl)-N-hydroxy-acrylamide]	–	–	2200
CCN(CCC(C)C)Cc1c(C(C)(C)C)nc2cc(C=CC(=O)NO)ccn12 [Compound 20, 3-(2-tert-Butyl-3-{[ethyl-(3-methyl-butyl)-amino]-methyl}-imidazo[1,2-a]pyridin-7-yl)-N-hydroxy-acrylamide]	–	60	350
CCCCCCN(CC)Cc1c(C(C)(C)C)nc2cc(C=CC(=O)NO)ccn12 [Compound 21, 3-{2-tert-Butyl-3-[(ethyl-hexyl-amino)-methyl]-imidazo[1,2-a]pyridin-7-yl}-N-hydroxy-acrylamide]	–	240	2000
CCCC(C)CN(CC)Cc1c(C(C)(C)C)nc2cc(C=CC(=O)NO)ccn12 (stereo not shown) [Compound 22, 3-(2-tert-Butyl-3-{[ethyl-(2-methyl-pentyl)-amino]-methyl}-imidazo[1,2-a]pyridin-7-yl)-N-hydroxy-acrylamide]	–	470	2100
CCN(CCC(C)(C)C)Cc1c(C(C)(C)C)nc2cc(C=CC(=O)NO)ccn12 [Compound 23, 3-(2-tert-Butyl-3-{[(3,3-dimethyl-butyl)-ethyl-amino]-methyl}-imidazo[1,2-a]pyridin-7-yl)-N-hydroxy-acrylamide]	–	70	480
CCC(CC)CN(CC)Cc1c(C(C)(C)C)nc2cc(C=CC(=O)NO)ccn12 [Compound 24, 3-(2-tert-Butyl-3-{[ethyl-(2-ethyl-butyl)-amino]-methyl}-imidazo[1,2-a]pyridin-7-yl)-N-hydroxy-acrylamide]	–	190	970
CCCCCCCN(CC)Cc1c(C(C)(C)C)nc2cc(/C=C/C(=O)NO)ccn12 [Compound 25]	–	540	2700
CCN(CCCSC)Cc1c(C(C)(C)C)nc2cc(C=CC(=O)NO)ccn12 [Compound 26, 3-(2-tert-Butyl-3-{[ethyl-(3-methylsulfanyl-propyl)-amino]-methyl}-imidazo[1,2-a]pyridin-7-yl)-N-hydroxy-acrylamide]	–	90	600
CCN(Cc1c(C(C)(C)C)nc2cc(C=CC(=O)NO)ccn12)CC1CC1 [Compound 27, 3-{2-tert-Butyl-3-[(cyclopropylmethyl-ethyl-amino)-methyl]-imidazo[1,2-a]pyridin-7-yl}-N-hydroxy-acrylamide]	–	330	2100
CCN(Cc1c(C(C)(C)C)nc2cc(C=CC(=O)NO)ccn12)CC1CCCCC1 [Compound 28, 3-{2-tert-Butyl-3-[(cyclohexylmethyl-ethyl-amino)-methyl]-imidazo[1,2-a]pyridin-7-yl}-N-hydroxy-acrylamide]	–	190	1100
CCN(CCC(C)C)Cc1c(CC(C)C)nc2cc(C=CC(=O)NO)ccn12 [Compound 60, 3-(3-{[Ethyl-(3-methyl-butyl)-amino]-methyl}-2-isobutyl-imidazo[1,2-a]pyridin-7-yl)-N-hydroxy-acrylamide]	–	–	150
